The values that follow come from patent US20230001010A1, “COMPOSITIONS AND METHODS FOR TREATING AUTOIMMUNE DISORDERS” (The Regents of the University of Michigan, priority 2019, published 2023).

Data set [1] has as its system CD4+ T cells from splenocytes. Kind of data set: Intracellular cytokine staining of CD4+ T cells from splenocytes. In kind it is in vivo, C57BL/6 mice. Conditions: spleen; day 40. The method, then: (§1) Briefly, female C57BL/6 mice were injected subcutaneously with an emulsion of MOG35-55 ([…], SEQ ID NO: 830) in complete Freund's adjuvant (CFA) and intraperitoneal (i.p.) injection of pertussis toxin (120 ng/dose on days 0 and 2). EAE-induced mice were treated with PBS, free MOG, HDL-MOG, or HDL-M30 (irrelevant CD4+ T cell epitope from B16F10 tumor cells) and CNS tissues were harvested on day 40 (FIG. 10A). CNS tissues were harvested from mice after intracardiac perfusion with PBS. Spinal cord was harvested, homogenized in 10 ml of PBS containing 1% BSA, and pelleted at 800×g for 5 min. Cell pellets were resuspended in 3 ml of collagenase A (1 mg/ml) and DNase I (1 mg/ml) in HBSS and incubated in a 37° C. water bath for 30 min. Samples were pelleted at 800×g, resuspended in 27% Percoll, and centrifuged for 10 min at 800×g. The myelin/debris layer and Percoll were removed, and the cell pellet was stained and analyzed by flow cytometric analysis. Splenic immune cells were isolated by homogenization through a 70 µm strainer (BD Falcon). RBCs were lysed using ACK lysis buffer. Cells were washed with 25 ml of PBS, centrifuged at 800×g, resuspended in FACS buffer, and stained with antibodies. For the cellular surface staining, cells were resuspended in PBS with a fixable viability dye (BV510) for 10 min. Then, cells were washed two times with FACs buffer and resuspended in Fc Block (anti-CD16/32; 100 ng/ml). For ex vivo re-stimulation, cells were incubated for 96 hr with MOG35-55 before brefeldin A (BFA) (5 μg/ml) was added for 4 h. For intracellular staining, cells were stained for surface markers, fixed/permeabilized, and stained with antibody for 30 min on the ice. After 2× washing, cells were resuspended in FACS buffer and analyzed by flow cytometric analysis. Data were collected with a Cytek Aurora flow cytometer using FCS express software (V7).
(§2) On day 40, CNS tissues were isolated and pulsed ex vivo with MOG35-55 peptide, followed by measurement of IL-17, IFN-gamma, and GM-CSF by ELISA (FIG. 10B). […]

Data set [2] concerns CD4+ T cells from CNS cells. Kind of data set: Intracellular cytokine staining of CD4+ T cells from CNS. It counts as in vivo, C57BL/6 mice. The following applies: day 40. The method, then:
as §1, §2

Data set [3] concerns experimental autoimmune encephalomyelitis (EAE). Kind of data set: Experimental autoimmune encephalomyelitis (EAE) mouse model, pathological score. It counts as in vivo, C57BL/6 mice. Conditions: for time until mice were moribund: treated on days 2, 9 and 16; for average pathological score: treated s.c. on days 2, 9 and 16. The method, then:
(§3) HDL nanodisc was prepared as previously described. Briefly, DMPC was dissolved in chloroform, which was evaporated with nitrogen flow and under vacuum for at least 1 h. The resulting lipid film was hydrated in 10 mM sodium phosphate buffer and sonicated in a bath sonicator for 10 min. ApoA1 mimetic peptide 22A dissolved in endotoxin free water was added to the above mixture (22A:DMPC=1:2 weight ratio) to obtain nanodiscs. To load MOG antigen peptide in nanodiscs, each antigen peptide was reacted with 4-(4-maleimidophenyl)-butyric DOPE for 3 h in dimethylformamide (DMF), which was removed by freeze-drying after dilution 10× with endotoxin-free water. The lipid-peptide conjugates were dissolved in DMSO and added to pre-formed sHDL and incubated for 30 min at room temperature. Unreacted MOG peptides were removed by using Zeba Spin Desalting columns (Pierce) following the manufacturer's instructions. The conjugation efficiency of MOG peptide was determined by LC-MS and gel permeation chromatography (GPC). EAE was induced in female C57BL/6 mice by inoculation with 100 μg of MOG in complete Freund's adjuvant on day 0 following the administration of pertussis toxin. Mice were then injected subcutaneously at tail base for therapeutic study with sHDL-MOG, MOG or PBS on indicated days. Mice were weighed and scored daily based on the following guideline: 0, no sign of disease; 1, loss of tone in the tail; 2, hind limb paresis; 3, hind limb paralysis; 4, tetraplegia; and 5, moribund.
EAE-induced mice were administered s.c. with PBS or HDL-MOG on days 15, 22, and 29, and a subset of animals also received i.p. administration of […] to deplete Tregs at the specified time points (FIG. 13).
We examined the therapeutic potential of HDL-FTY720 in the EAE model. EAE was initiated as described above. Briefly, EAE was induced in mice as indicated above. Mice received i.p. administration of PBS or HDL-FTY720 (1 mg/kg) on days 14, 21, and 28. Mice were scored daily and assigned EAE scores as indicated above.

In another data set the test system is Tregs in the CNS. Kind of data set: Frequency of Tregs in CNS of EAE mice (flow cytometry). Conditions: EAE-induced mice; day 40. In kind it is in vivo. On the procedure:
Cells from CNS were stained by anti-CD25, anti-CD4, and MOG-tetramer, followed by fixation/permeabilization and intracellular staining with anti-Foxp3. Stained cells were then analyzed by flow cytometry. […] On the other hand, mice treated with free MOG peptide or HDL-M30 had basal level of Tregs as in PBS-treated EAE mice (FIGS. 12A-12B).
(In general: A flow cytometer gives signals particle by particle.)

The nature of data set [4]: Antigen / drug loading efficiency in HDL nanodiscs (HPLC/MS). In kind it is physicochemical. Conditions: antigen / antigen-lipid conjugate loaded into HDL nanodiscs; HPLC/MS. The method, then:
as §3
To produce HDL nanodiscs carrying immunomodulatory drugs, 22A, and DMPC were dissolved in acetic acid and freeze-dried overnight as shown above. Drugs (FTY720, ITE, TSA, or SAHA) were dissolved in chloroform and added to lyophilized powder, followed by drying overnight in vacuum oven. Dried samples were rehydrated by 10 mM phosphate buffer. After three heat-cooling cycles, HDL-loaded with drugs were performed. The concentration of each drug was measured by HPLC-MS as shown for FTY720, ITE, TSA, or SAHA (FIGS. 14-17, respectively). Free drugs were used to generate standard curves. […] Samples were also analyzed by dynamic light scattering (DLS) for the particle sizes. […] We also analyzed HDL-FTY720 samples using gel permeation chromatography (GPC) (FIG. 19).
We synthesized HDL nanodiscs loaded with other CD4+ T cell epitopes for validation of our approach. We have synthesized phospholipids conjugated to either Ea chain 52-68 peptide (EA, ASFEAQGALANIAVDKA (SEQ ID NO: 831)), ovalbumin-II 323-339 peptide (OVA-II, ISQAVHAAHAEINEAGR (SEQ ID NO: 832)), and type-II collagen 250-270 peptide (CIA, […] (SEQ ID NO: 833)), each modified with CSS-peptide at N-terminus. Antigen-lipid conjugates were loaded into HDL nanodiscs as described above and analyzed by HPLC/MS and DLS. EA, OVA-II, and CIA peptides were conjugated to MPB-phospholipids with ˜95% conjugation efficiency (FIGS. 22-25). Antigen-lipid conjugates were efficiently loaded into HDL nanodiscs with ˜90%, ˜84%, and ˜78% loading efficiency for EA, OVA-II, and CIA peptides, respectively (FIGS. 22-25).

The next data set concerns CNS tissues of EAE mice. Kind of data set: Cytokine release from CNS cells of treated EAE mice after ex vivo MOG35-55 re-stimulation (ELISA). The following applies: day 40, pulsed ex vivo with MOG35-55. It counts as in vivo, C57BL/6 mice. The method, then:
FIG. 6A is a schematic diagram depicting the treatment regimen. FIG. 6B are graphs showing the amount of GM-CSF, IFN-gamma, and IL-17 released after ex vivo treatment of CNS tissues with MOG35-55 peptide.
as §1, with “(V7). […]” for “(V7).”
In general terms: In an ELISA, binding on a coated surface is turned into a signal by an enzyme label.

The mark [5] stands for this setting: harsh EAE induced with MOG1-125.

On to “MEVGWYRSPFSRVVHLYRNGK [free MOG peptide]”, for which, in data set [1], the “frequency of CD4+ T cells producing GM-CSF” value is “high frequencies”, the “frequency of CD4+ T cells producing IFN-gamma” value is on record as “high frequencies” and the “frequency of CD4+ T cells producing IL-17” value was “high frequencies”. In addition, in data set [2], the “frequency of CD4+ T cells producing GM-CSF” value is listed as “high frequencies”, the “frequency of CD4+ T cells producing IFN-gamma” value is “high frequencies” and the “frequency of CD4+ T cells producing IL-17” value is reported as “high frequencies”. For the same sequence, in data set [3] (setting [5]), the “time until mice were moribund” value is no more than 20 days and the average pathological score is on record as 5. In data set [3] (mild EAE induced with MOG35-55), the “time until mice were moribund” value is on record as no more than 20 days and the average pathological score stood at 5. Further, the “frequency of CD25+Foxp3+ Tregs in the CNS” value in the data set on Tregs in the CNS is “basal level”. In addition, the “loading efficiency in HDL” value in data set [4] is on record as roughly 90%. In addition, in the data set with CNS tissues of EAE mice, the “level of GM-CSF in CNS” value is “high levels”, the “level of IFN-gamma in CNS” value is reported as “high levels” and the “level of IL-17 in CNS” value is recorded as “high levels”.
